Measured values from patent publication US20240327800A1, “HIGH THROUGHPUT LOCALIZED PASSIVE DIFFUSION DEVICE FOR PATTERNING ORGANOIDS” (University of Massachusetts, priority 2023, published 2024).

System: hESCs (H9) derived forebrain organoid
Experiment: Dorsal-ventral patterning of forebrain organoids with a gradient of Shh agonist (immunostaining)
Assay type: cell-based, human
Method: The cells were sub-passaged every 3 to 4 days by 80% to 90% confluence. Before cell culturing, the device 500 was incubated in 2% pluronic for one hour, rinsed with 1×DPBS three times, and dried out before adding the gelatin-transglutaminase mixture to layer 3. Before cell seeding, the medium and medium chambers were incubated at room temperature with E8 basal for up to 24 hrs. The gelatin in the microwells was aspirated after being soaked in the E8 basal before cell seeding.
Cells were seeded using E8 medium supplemented with 10 uM Rock inhibitor (Y27). 100, 000 cells suspended in 5 μl medium were then pipetted into each microwell. Then, the device 500 was centrifuged at 200 g for 2 mins. Then, another 1 ml and 500 μl of medium were added into the medium chamber and the morphogen chamber, respectively. The device 500 was placed into a 37 C.° incubator overnight to generate a cell aggregate. […] It was observed that the EBs were immobilized by growing them around the sutures. To grow EBs around the sutures, a high density of hESCs was seeded directly into the microwell. The size of the EB spheroid at day 8, around 500 μm, was consistent with the diameter of the EB at day 1. The size of EB spheroid could be grown by changing the E8 medium and adding 1% PS daily during continued culturing.
Essential 6 (E6) medium supplemented with 1% PS, 5 μM dorsomorphin (DM), and 10 μM SB-431542 for both medium and morphogen chambers for six days for dual SMAD inhibition. […] To generate a D-V patterned organoid, 5 μM of purmorphamine and 5 μM of IWP-2 were supplemented to the basal medium in the morphogen chamber for five days between day 14 to day 30. To generate cortical organoids, the basal medium was used for both the medium and the morphogen chamber. To generate subpallial organoids, purmorphamine and IWP-2 supplement medium were used for both chambers. The medium was changed daily until day 30.
The organoids were then rinsed with 1×DPBS two times for 10 mins, then fixed by incubating in 4% paraformaldehyde (Electron Microscopy Sciences) at 4 C.° overnight. […]

**Q.** How did the D-V patterning (Uniform Pur control: purmorphamine in both medium chamber and morphogen chamber (no gradient)) turn out when `c1ccc2c(Oc3nc(Nc4ccc(N5CCOCC5)cc4)c4ncn(C5CCCCC5)c4n3)cccc2c1` [purmorphamine] was run?
**A.** No D-V patterning was established

**Q.** What about the “NKX2.1 marker expression (ventral fate differentiation)” value (gradient group, 5 μM purmorphamine in morphogen chamber (with 5 μM IWP-2), five continuous days between day 14 and day 30, bottom half of organoid) of the same molecule?
**A.** higher expression level of NKX2.1 makers was established at the bottom half of the organoid

**Q.** What about the “PAX6 expression (dorsal fate differentiation)” value (gradient group, 5 μM purmorphamine in morphogen chamber, five continuous days between day 14 and day 30, top half of organoid) of the same molecule?
**A.** dominant expression of PAX6 was observed
